Measurements reported in publication PMC5560747, “Computational-experimental approach to drug-target interaction mapping: A case study on kinase inhibitors” (PLoS Computational Biology, 2017).

Key:
Aurora A [1] = molecular target: T1, Aurora A (Homo sapiens, UniProt O14965); test: ADP-Glo Kinase Assay, tivozanib off-target testing; type: biochemical; details: read-out: Experimental validation pIC50 (converted)
T1 construct: purchased SignalChem A28-18G-10
T1 sequence (O14965 1-403): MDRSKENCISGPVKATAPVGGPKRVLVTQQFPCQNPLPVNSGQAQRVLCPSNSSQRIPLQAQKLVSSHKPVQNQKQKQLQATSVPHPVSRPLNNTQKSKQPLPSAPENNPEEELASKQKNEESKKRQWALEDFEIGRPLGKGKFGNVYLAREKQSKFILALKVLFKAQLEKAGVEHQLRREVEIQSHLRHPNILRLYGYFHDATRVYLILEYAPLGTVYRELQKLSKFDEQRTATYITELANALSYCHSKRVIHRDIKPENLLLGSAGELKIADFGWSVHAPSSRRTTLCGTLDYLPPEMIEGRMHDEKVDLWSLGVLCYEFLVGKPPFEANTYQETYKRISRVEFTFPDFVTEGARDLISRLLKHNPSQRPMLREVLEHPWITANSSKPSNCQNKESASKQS
Method: The kinase inhibitors were dissolved to 1X Kinase Buffer with 5% DMSO by transferring 200nL of the buffer using ECHO525 Liquid handler (Labcyte). […] The dissolved kinases and 2.5X kinase buffer controls were transferred at 400nL using ECHO525. […] The 2.5X ATP/substrate working stocks were transferred at 400nL using ECHO525.
For the ADP detection, 1 μl ADP-Glo reagent was dispensed (Thermo Scientific Multidrop Combi nL). […] Next, 2 μl kinase detection reagent was dispensed with Thermo Scientific Multidrop Combi nL.
Kinase assay, kinase dilution and substrate buffers were as indicated by the manufacturer (Promega). The assays were performed in the same way as with the kinases from the Kinase Selectivity Profiling System + ADP-Glo Assay kits (see previous section). All the assays were done in three individual experiments, each having three replicates.
IC50 values from all the experiments were obtained with GraphPad Prism 7 (GraphPad Software, Inc. California, USA) using inhibitor vs. response—variable slope (four parameters) analysis. […] X-axis scale was set to log10.

LCK = LCK (Homo sapiens, UniProt P06239); parameters: method as in Gao et al. [42]; details: ref Gao et al. [42], cited from earlier work
PKCa = tested on: PKCa; parameters: method as in Gao et al. [42]; details: ref Gao et al. [42], cited from earlier work
Aurora A [2] = molecular target: T1, Aurora A; parameters: method as in Gao et al. [42]; details: ref Gao et al. [42], cited from earlier work
FER = tested on: FER; parameters: method as in Gao et al. [42]; details: ref Gao et al. [42], cited from earlier work
MKNK2 (MNK2) = tested on: MKNK2 (MNK2); parameters: method as in Gao et al. [42]; details: ref Gao et al. [42], cited from earlier work
FYN A = FYN A (Homo sapiens, UniProt P06241); parameters: method as in Gao et al. [42]; details: ref Gao et al. [42], cited from earlier work
TRKB = tested on: TRKB; parameters: method as in Gao et al. [42]; details: ref Gao et al. [42], cited from earlier work
HIPK2 = tested on: HIPK2; parameters: method as in Gao et al. [42]; details: ref Gao et al. [42], cited from earlier work
CDK2 = tested on: CDK2; parameters: method as in Gao et al. [42]; details: ref Gao et al. [42], cited from earlier work
LIMK1 = tested on: LIMK1; parameters: method as in Gao et al. [42]; details: ref Gao et al. [42], cited from earlier work
ROCK2 = tested on: ROCK2; parameters: method as in Gao et al. [42]; details: ref Gao et al. [42], cited from earlier work
RSK2 = tested on: RSK2; parameters: method as in Gao et al. [42]; details: ref Gao et al. [42], cited from earlier work
PKCg = tested on: PKCg; parameters: method as in Gao et al. [42]; details: ref Gao et al. [42], cited from earlier work
PAK4 = tested on: PAK4; parameters: method as in Gao et al. [42]; details: ref Gao et al. [42], cited from earlier work
CHK1 = tested on: CHK1; parameters: method as in Gao et al. [42]; details: ref Gao et al. [42], cited from earlier work
CAMK2g = tested on: CAMK2g; parameters: method as in Gao et al. [42]; details: ref Gao et al. [42], cited from earlier work
FAK = FAK (Homo sapiens, UniProt Q05397); parameters: method as in Gao et al. [42]; details: ref Gao et al. [42]; cited from earlier work
EEF2K = tested on: EEF2K; parameters: method as in Gao et al. [42]; details: ref Gao et al. [42], cited from earlier work
ERK6 = tested on: ERK6; parameters: method as in Gao et al. [42]; details: ref Gao et al. [42], cited from earlier work
AKT2 = tested on: AKT2; parameters: method as in Gao et al. [42]; details: ref Gao et al. [42], cited from earlier work
MAPK13 = tested on: MAPK13; parameters: method as in Gao et al. [42]; details: ref Gao et al. [42], cited from earlier work
CDC42BPA = tested on: CDC42BPA; parameters: method as in Gao et al. [42]; details: ref Gao et al. [42], cited from earlier work
IRAK1 = tested on: IRAK1; parameters: method as in Gao et al. [42]; details: ref Gao et al. [42], cited from earlier work
SGK1 = tested on: SGK1; parameters: method as in Gao et al. [42]; details: ref Gao et al. [42], cited from earlier work
BRSK1 = tested on: BRSK1; parameters: method as in Gao et al. [42]; details: ref Gao et al. [42], cited from earlier work
CAMK1 = tested on: CAMK1; parameters: method as in Gao et al. [42]; details: ref Gao et al. [42], cited from earlier work
AKT3 = tested on: AKT3; parameters: method as in Gao et al. [42]; details: ref Gao et al. [42], cited from earlier work
MAPKAPK3 = tested on: MAPKAPK3; parameters: method as in Gao et al. [42]; details: ref Gao et al. [42], cited from earlier work

Sequence of LCK (P06239 whole entry): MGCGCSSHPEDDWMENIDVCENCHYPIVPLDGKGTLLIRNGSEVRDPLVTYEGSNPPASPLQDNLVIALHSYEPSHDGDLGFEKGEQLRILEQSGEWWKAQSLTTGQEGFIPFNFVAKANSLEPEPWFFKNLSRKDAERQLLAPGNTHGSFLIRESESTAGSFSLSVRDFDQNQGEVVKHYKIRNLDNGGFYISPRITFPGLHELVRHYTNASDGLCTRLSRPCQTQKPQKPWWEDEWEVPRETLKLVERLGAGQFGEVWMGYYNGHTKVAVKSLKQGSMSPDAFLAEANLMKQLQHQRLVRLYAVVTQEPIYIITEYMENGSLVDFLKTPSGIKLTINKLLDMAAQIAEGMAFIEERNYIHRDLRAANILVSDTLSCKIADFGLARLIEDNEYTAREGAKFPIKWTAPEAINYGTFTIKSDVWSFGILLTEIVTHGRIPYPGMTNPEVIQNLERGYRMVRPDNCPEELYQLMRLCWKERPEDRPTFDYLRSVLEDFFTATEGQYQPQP
Sequence of FYN A (P06241 whole entry): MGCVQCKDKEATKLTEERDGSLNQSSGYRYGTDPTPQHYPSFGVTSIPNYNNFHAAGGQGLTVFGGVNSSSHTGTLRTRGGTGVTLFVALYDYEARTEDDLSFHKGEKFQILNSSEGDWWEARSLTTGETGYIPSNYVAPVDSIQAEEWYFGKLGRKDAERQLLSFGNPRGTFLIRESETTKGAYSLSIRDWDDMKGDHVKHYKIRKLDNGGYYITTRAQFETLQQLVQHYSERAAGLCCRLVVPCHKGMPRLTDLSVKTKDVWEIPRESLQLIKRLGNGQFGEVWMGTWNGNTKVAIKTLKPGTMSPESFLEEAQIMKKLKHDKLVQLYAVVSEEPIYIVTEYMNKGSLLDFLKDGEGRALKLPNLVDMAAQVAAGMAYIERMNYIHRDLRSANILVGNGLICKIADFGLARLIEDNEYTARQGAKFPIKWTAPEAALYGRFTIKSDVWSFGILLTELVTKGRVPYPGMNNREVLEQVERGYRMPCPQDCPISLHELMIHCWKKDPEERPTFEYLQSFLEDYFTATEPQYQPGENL
Sequence of FAK (Q05397 whole entry): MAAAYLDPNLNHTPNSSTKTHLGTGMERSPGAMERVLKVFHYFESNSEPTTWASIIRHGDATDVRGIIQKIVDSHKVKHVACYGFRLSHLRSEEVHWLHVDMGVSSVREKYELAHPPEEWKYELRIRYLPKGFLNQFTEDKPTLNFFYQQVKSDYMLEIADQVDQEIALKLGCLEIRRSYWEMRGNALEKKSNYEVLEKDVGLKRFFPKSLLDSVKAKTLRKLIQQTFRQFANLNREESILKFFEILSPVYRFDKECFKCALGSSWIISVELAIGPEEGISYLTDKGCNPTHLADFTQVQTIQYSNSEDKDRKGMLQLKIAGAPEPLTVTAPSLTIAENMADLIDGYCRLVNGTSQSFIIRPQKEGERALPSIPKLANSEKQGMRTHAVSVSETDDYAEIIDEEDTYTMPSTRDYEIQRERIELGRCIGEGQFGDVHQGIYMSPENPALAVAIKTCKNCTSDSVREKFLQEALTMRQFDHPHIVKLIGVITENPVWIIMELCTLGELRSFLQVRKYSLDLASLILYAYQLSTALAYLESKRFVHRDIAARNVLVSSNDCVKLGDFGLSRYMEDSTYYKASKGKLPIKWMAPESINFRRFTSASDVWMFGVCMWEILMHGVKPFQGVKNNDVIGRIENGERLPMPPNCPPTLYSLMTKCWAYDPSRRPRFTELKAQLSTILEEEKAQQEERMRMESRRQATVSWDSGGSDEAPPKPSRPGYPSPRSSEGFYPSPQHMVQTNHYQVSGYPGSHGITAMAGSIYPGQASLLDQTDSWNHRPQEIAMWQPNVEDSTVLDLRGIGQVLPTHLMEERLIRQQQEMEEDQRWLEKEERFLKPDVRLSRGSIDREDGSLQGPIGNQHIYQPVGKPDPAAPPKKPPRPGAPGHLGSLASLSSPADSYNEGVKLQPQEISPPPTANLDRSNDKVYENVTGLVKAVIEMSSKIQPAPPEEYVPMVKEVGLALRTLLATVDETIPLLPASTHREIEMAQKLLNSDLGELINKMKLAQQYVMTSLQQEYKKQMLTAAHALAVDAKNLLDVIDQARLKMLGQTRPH

COc1cc2nccc(Oc3ccc(NC(=O)Nc4cc(C)on4)c(Cl)c3)c2cc1OC [TIVOZANIB, Tivozanib]
IC50 (Aurora A [1]): > 12.5 µM | Gao et al. % of activity remaining at 1 µM (LCK; 1 µM): -2% | Gao et al. % of activity remaining at 10 µM (LCK; 10 µM): 1% | Gao et al. % of activity remaining at 1 µM (PKCa; 1 µM): 108% | Gao et al. % of activity remaining at 10 µM (PKCa; 10 µM): 101% | Gao et al. % of activity remaining at 1 µM (Aurora A [2]; 1 µM): 7% | Gao et al. % of activity remaining at 10 µM (Aurora A [2]; 10 µM): 7% | Gao et al. % of activity remaining at 1 µM (FER; 1 µM): 87% | Gao et al. % of activity remaining at 10 µM (FER; 10 µM): 16% | Gao et al. % of activity remaining at 1 µM (MKNK2 (MNK2); 1 µM): 105% | Gao et al. % of activity remaining at 10 µM (MKNK2 (MNK2); 10 µM): 64% | Gao et al. % of activity remaining at 1 µM (FYN A; 1 µM): 5% | Gao et al. % of activity remaining at 10 µM (FYN A; 10 µM): 1% | Gao et al. % of activity remaining at 1 µM (TRKB; 1 µM): 42% | Gao et al. % of activity remaining at 10 µM (TRKB; 10 µM): -10% | Gao et al. % of activity remaining at 1 µM (HIPK2; 1 µM): 94% | Gao et al. % of activity remaining at 10 µM (HIPK2; 10 µM): 81% | Gao et al. % of activity remaining at 1 µM (CDK2; 1 µM): 98% | Gao et al. % of activity remaining at 10 µM (CDK2; 10 µM): 86% | Gao et al. % of activity remaining at 1 µM (LIMK1; 1 µM): 67% | Gao et al. % of activity remaining at 10 µM (LIMK1; 10 µM): 14% | Gao et al. % of activity remaining at 1 µM (ROCK2; 1 µM): 76% | Gao et al. % of activity remaining at 10 µM (ROCK2; 10 µM): 51% | Gao et al. % of activity remaining at 1 µM (RSK2; 1 µM): 60% | Gao et al. % of activity remaining at 10 µM (RSK2; 10 µM): 35% | Gao et al. % of activity remaining at 1 µM (PKCg; 1 µM): 109% | Gao et al. % of activity remaining at 10 µM (PKCg; 10 µM): 110% | Gao et al. % of activity remaining at 1 µM (PAK4; 1 µM): 99% | Gao et al. % of activity remaining at 10 µM (PAK4; 10 µM): 92% | Gao et al. % of activity remaining at 1 µM (CHK1; 1 µM): 89% | Gao et al. % of activity remaining at 10 µM (CHK1; 10 µM): 100% | Gao et al. % of activity remaining at 1 µM (CAMK2g; 1 µM): 108% | Gao et al. % of activity remaining at 10 µM (CAMK2g; 10 µM): 70% | Gao et al. % of activity remaining at 10 µM (FAK): 35% | Gao et al. % of activity remaining at 1 µM (EEF2K; 1 µM): 84% | Gao et al. % of activity remaining at 10 µM (EEF2K; 10 µM): 116% | Gao et al. % of activity remaining at 1 µM (ERK6; 1 µM): 100% | Gao et al. % of activity remaining at 10 µM (ERK6; 10 µM): 94% | Gao et al. % of activity remaining at 1 µM (AKT2; 1 µM): 105% | Gao et al. % of activity remaining at 10 µM (AKT2; 10 µM): 89% | Gao et al. % of activity remaining at 1 µM (MAPK13; 1 µM): 114% | Gao et al. % of activity remaining at 10 µM (MAPK13; 10 µM): 97% | Gao et al. % of activity remaining at 1 µM (CDC42BPA; 1 µM): 116% | Gao et al. % of activity remaining at 10 µM (CDC42BPA; 10 µM): 102% | Gao et al. % of activity remaining at 1 µM (IRAK1; 1 µM): 82% | Gao et al. % of activity remaining at 10 µM (IRAK1; 10 µM): 92% | Gao et al. % of activity remaining at 1 µM (SGK1; 1 µM): 83% | Gao et al. % of activity remaining at 10 µM (SGK1; 10 µM): 64% | Gao et al. % of activity remaining at 1 µM (BRSK1; 1 µM): 65% | Gao et al. % of activity remaining at 10 µM (BRSK1; 10 µM): 46% | Gao et al. % of activity remaining at 1 µM (CAMK1; 1 µM): 105% | Gao et al. % of activity remaining at 10 µM (CAMK1; 10 µM): 41% | Gao et al. % of activity remaining at 1 µM (AKT3; 1 µM): 95% | Gao et al. % of activity remaining at 10 µM (AKT3; 10 µM): 89% | Gao et al. % of activity remaining at 1 µM (MAPKAPK3; 1 µM): 116% | Gao et al. % of activity remaining at 10 µM (MAPKAPK3; 10 µM): 67%
